Data set [1] has as its target T1, Serine/threonine-protein kinase PLK2 (Homo sapiens, UniProt Q9NYY3). As to the kind of experiment: Inhibition of PLK2 (unknown origin) at 1 uM relative to control.
Target sequence in this assay (Q9NYY3 whole entry, looked up): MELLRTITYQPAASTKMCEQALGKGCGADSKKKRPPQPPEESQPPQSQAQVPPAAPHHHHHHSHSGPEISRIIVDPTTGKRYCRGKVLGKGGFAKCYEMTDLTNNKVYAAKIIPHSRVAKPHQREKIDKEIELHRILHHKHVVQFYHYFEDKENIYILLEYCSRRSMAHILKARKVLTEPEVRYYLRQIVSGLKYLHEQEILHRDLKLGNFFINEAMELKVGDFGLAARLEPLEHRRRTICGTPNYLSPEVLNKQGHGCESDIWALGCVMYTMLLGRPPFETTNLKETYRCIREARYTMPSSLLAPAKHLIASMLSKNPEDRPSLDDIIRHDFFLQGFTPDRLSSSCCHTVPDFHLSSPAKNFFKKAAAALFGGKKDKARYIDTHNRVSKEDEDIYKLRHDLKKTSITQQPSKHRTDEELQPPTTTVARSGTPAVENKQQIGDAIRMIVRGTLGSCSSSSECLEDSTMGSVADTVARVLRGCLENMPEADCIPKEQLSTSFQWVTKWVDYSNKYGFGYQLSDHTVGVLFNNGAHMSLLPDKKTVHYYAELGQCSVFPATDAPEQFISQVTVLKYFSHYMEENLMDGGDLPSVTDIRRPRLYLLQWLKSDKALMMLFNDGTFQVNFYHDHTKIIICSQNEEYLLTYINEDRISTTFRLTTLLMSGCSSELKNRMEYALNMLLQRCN
Data set [2] in a line: Volume of distribution at steady state in Beagle dog at 3 mg/kg, iv measured upto 24 hrs by LC-MS/MS analysis. The format is ADME, organism-based, Canis lupus familiaris. To be noted: in vivo, read-out: Vdss.
Data set [3] concerns Epidermal growth factor receptor (Homo sapiens), P00533 [UNDEFINED MUTATION]. The data set is described as follows: Inhibition of EGFR d746-750 mutant (unknown origin) at 1 uM relative to control.
Epidermal growth factor receptor (Homo sapiens), P00533 [UNDEFINED MUTATION], sequence (P00533 whole entry, looked up, stated change not applied): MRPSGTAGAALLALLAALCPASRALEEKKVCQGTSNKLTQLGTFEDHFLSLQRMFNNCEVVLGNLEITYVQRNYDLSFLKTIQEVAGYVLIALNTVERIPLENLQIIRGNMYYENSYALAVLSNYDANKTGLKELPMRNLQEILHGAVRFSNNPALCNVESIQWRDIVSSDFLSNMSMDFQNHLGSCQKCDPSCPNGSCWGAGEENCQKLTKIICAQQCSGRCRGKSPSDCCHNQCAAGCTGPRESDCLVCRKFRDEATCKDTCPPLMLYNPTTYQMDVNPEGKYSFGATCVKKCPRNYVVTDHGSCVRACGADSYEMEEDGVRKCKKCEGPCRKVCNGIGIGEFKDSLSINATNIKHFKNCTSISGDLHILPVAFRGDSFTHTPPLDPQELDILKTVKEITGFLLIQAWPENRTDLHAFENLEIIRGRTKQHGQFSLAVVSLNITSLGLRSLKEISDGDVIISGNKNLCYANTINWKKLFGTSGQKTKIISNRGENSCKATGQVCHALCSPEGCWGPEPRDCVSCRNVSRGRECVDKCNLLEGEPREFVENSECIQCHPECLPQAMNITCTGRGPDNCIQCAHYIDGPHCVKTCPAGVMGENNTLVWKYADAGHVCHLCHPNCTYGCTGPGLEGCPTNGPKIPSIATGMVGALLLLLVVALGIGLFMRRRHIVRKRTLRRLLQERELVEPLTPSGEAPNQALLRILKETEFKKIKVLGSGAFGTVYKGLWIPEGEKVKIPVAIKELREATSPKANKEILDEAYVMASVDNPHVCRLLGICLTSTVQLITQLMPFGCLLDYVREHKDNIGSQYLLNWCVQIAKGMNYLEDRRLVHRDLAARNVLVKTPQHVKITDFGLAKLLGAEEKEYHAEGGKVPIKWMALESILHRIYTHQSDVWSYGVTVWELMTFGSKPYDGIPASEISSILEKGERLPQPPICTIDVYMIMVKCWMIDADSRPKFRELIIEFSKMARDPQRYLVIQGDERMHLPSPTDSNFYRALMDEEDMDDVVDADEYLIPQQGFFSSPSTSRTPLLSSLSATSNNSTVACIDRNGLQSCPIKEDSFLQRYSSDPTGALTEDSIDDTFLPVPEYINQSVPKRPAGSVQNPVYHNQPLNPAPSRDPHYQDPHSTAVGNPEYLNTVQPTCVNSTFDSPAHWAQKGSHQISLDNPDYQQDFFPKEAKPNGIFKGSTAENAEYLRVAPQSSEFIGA
Data set [4] has as its target Tyrosine-protein kinase Lck (Homo sapiens) (UniProt P06239). The data set is described as follows: Inhibition of LCK (unknown origin) at 1 uM relative to control.
Data set [5] has as its system A-427. The data set is described as follows: Antiproliferative activity against human A-427 cells assessed as reduction in cell viability after 3 days by CellTiter-Glo assay. In kind it is functional, cell-based. The note with it: A-427, 72 h. In general terms: Cellular ATP, detected with luciferase, serves as a proxy for viable cell number.
For data set [6], the target named is T1, Serine/threonine-protein kinase PLK2. The data set is described as follows: Inhibition of PLK2 (unknown origin).
Target sequence in this assay (Q9NYY3 whole entry): as the sequence (Q9NYY3 whole entry, looked up) above
The nature of data set [7]: Half life in Beagle dog at 10 mg/kg, po measured upto 24 hrs by LC-MS/MS analysis. The format is ADME, organism-based, Canis lupus familiaris. The note with it: in vivo.
Data set [8] in a line: Efflux ratio of permeability from basolateral to apical side over apical to basolateral side in human Caco-2 cells. In kind it is ADME, cell-based. Background: Passage across Caco-2 layers is used to estimate intestinal permeability.
Data set [9] in a line: AUC(0 to 24 hrs) in rat at 60 mg/kg, po. The note with it: in vivo. Also noted: time < 24 hr, route oral, dose 60 mg/kg. In kind it is ADME, organism-based.
Data set [10] is described as follows: Cmax in Beagle dog at 10 mg/kg, po measured upto 24 hrs by LC-MS/MS analysis. The format is ADME, organism-based, Canis lupus familiaris. Also noted: route oral, dose 10 mg/kg, time <=24. The note with it: in vivo.
Data set [11] can be described thus: Clearance in Beagle dog at 3 mg/kg, iv measured upto 24 hrs by LC-MS/MS analysis. In kind it is ADME, organism-based, Canis lupus familiaris. To be noted: in vivo.
A short description of data set [12]: Intrinsic clearance in human hepatocytes. The format is ADME, cell-based, Hepatocyte. The note with it: read-out: CLH.
The subject of data set [13] is A-427. The data set is described as follows: Antitumor activity against human A-427 cells xenografted in SCID mouse assessed as reduction in tumor growth at 80 mg/kg, po administered once daily for 28 days and measured twice per weeks. In kind it is functional, organism-based. The note with it: time 28.0 day.
Data set [14] can be described thus: Intrinsic clearance in mouse microsomes. The format is ADME, Microsome.
Data set [15] concerns the target Epidermal growth factor receptor (Homo sapiens, UniProt P00533, 747-749DEL/A750P). The data set is described as follows: Inhibition of EGFR d747-749/A750P mutant (unknown origin).
Data set [16] addresses T2, Serine/threonine-protein kinase Nek1 (Homo sapiens) (UniProt Q96PY6).
T2 sequence (whole entry): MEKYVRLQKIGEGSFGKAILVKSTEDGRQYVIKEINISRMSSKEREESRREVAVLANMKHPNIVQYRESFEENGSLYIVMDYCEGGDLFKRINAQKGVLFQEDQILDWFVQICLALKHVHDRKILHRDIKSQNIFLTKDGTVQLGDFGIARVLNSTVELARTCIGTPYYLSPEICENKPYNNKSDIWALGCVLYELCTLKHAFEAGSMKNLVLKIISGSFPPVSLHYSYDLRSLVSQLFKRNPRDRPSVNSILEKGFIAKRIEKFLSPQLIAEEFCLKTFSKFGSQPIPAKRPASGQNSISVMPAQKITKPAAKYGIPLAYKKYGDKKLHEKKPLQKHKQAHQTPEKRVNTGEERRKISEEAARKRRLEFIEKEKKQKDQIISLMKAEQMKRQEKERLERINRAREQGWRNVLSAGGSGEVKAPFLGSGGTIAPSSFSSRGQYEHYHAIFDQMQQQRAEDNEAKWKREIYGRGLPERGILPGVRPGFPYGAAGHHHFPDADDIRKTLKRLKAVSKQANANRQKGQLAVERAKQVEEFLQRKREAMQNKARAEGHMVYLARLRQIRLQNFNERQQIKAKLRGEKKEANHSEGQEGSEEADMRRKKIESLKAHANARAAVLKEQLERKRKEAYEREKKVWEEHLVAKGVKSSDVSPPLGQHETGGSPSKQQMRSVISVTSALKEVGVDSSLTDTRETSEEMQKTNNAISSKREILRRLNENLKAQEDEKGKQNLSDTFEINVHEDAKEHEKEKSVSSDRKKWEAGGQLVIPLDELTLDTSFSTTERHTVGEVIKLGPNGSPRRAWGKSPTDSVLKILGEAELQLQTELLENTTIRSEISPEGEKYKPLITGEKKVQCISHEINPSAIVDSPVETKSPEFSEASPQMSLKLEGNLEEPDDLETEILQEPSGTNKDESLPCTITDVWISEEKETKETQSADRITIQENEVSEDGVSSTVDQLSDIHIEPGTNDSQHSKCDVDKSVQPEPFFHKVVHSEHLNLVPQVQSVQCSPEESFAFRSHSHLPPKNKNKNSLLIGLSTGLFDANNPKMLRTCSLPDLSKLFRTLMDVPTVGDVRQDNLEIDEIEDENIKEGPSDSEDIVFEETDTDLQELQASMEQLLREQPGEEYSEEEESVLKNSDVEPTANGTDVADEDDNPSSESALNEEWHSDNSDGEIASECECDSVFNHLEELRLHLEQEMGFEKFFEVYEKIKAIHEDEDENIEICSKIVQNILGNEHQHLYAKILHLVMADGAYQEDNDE
The data set is described as follows: Inhibition of NEK1 (unknown origin) at 1 uM relative to control.

The nature of data set [17]: Permeability of the compound across basolateral to apical side in human Caco-2 cells. In kind it is ADME, cell-based. To be noted: read-out: permeability.
Data set [18] deals with Serine/threonine-protein kinase PLK1 (Homo sapiens, UniProt P53350). As to the kind of experiment: Inhibition of PLK1 (unknown origin) at 1 uM relative to control.
Serine/threonine-protein kinase PLK1, sequence (P53350 whole entry): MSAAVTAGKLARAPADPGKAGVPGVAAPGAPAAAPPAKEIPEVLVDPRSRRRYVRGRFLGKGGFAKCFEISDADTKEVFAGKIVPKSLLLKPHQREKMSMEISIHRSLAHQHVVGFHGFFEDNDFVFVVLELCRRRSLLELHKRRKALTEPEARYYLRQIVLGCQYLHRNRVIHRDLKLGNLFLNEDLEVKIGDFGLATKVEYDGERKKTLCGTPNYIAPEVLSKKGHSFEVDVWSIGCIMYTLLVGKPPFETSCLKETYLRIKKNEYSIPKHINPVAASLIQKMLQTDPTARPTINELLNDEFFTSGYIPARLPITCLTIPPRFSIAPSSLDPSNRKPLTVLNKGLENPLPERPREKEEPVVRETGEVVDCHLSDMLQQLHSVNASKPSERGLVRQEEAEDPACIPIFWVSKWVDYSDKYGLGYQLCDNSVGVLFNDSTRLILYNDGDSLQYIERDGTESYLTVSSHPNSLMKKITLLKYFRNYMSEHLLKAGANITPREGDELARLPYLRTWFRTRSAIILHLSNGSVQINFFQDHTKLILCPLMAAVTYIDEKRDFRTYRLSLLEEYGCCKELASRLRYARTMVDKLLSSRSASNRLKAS
A further data set deals with Wee1-like protein kinase (Homo sapiens, UniProt P30291).
Wee1-like protein kinase, sequence (P30291 whole entry): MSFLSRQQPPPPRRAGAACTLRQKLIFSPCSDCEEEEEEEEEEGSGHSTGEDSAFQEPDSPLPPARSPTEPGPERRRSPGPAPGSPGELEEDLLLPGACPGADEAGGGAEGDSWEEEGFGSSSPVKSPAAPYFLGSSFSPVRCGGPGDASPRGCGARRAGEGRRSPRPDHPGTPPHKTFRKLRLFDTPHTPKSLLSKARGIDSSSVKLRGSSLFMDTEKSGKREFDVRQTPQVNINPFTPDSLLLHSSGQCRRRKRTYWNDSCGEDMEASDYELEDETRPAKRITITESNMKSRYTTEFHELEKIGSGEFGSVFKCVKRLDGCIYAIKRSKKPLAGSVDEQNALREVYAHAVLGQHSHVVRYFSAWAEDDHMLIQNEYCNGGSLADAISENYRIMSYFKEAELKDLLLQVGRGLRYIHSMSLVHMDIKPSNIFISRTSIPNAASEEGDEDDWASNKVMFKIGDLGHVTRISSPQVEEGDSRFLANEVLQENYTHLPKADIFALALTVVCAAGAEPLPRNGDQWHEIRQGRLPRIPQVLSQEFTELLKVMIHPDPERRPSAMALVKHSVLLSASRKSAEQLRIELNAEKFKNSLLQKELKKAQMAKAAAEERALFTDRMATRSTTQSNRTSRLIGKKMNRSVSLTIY
Data set [19] has as its system Epidermal growth factor receptor (Homo sapiens), P00533 [UNDEFINED MUTATION]. The data set is described as follows: Inhibition of EGFR d747-749/A750P mutant (unknown origin) at 1 uM relative to control.
Data set [20] in a line: Permeability of the compound across apical to basolateral side in human Caco-2 cells. In kind it is ADME, cell-based. To be noted: read-out: permeability.
Data set [21] in a line: AUC in mouse plasma at 80 mg/kg, po administered once daily for 28 days. The format is ADME, organism-based. Details: time 28 day, dose 80 mg/kg.
Data set [22] in a line: Octanol/buffer distribution coefficient, logD of the compound at pH 7.4. In kind it is physicochemical.

Here are results for 1 molecule from ChEMBL document CHEMBL4842364 (J Med Chem, 2021).

Activity calls are given as the source filed them. The rule behind the calls is not given here.

Epidermal growth factor receptor, sequence (P00533 whole entry, looked up, stated change not applied): as the sequence (P00533 whole entry, looked up, stated change not applied) above
Tyrosine-protein kinase Lck (Homo sapiens), sequence (P06239 2-509 limits assumed): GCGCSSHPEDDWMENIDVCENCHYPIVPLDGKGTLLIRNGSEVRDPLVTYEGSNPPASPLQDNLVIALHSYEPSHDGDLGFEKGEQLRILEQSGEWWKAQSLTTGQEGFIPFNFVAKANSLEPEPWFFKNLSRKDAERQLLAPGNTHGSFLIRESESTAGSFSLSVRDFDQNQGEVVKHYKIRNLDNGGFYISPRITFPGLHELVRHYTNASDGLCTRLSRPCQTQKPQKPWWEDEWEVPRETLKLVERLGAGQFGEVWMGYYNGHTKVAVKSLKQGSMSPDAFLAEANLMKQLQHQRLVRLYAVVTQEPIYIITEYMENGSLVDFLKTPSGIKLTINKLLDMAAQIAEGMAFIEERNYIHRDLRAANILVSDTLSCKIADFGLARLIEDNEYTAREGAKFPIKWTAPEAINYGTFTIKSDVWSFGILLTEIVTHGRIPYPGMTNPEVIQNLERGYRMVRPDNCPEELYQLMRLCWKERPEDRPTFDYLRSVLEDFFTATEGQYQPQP
Description for Wee1-like protein kinase: Displacement of Alexa Fluor labelled kinase tracer178 from WEE1 (unknown origin) incubated for 60 mins by FRET assay

Turning to `C=CCn1c(=O)c2cnc(Nc3ccc(N4CCN(C)CC4)cc3)nc2n1-c1ccc2c(n1)C(O)(CC)CC2` (racemic), the inhibition in [1] was greater than 90%; in [3], 75%; in [4] it was 75%; in data set [16] it was 75%; in data set [18] it was 75%; in data set [19], greater than 90%. For the same molecule, the Vd in [2] is 4.4 L/kg. For the same molecule, the IC50 is 75 nM with A-427 [5], 40 nM in [6], 60 nM in [15] and 3.9 nM against Wee1-like protein kinase. Also, in data set [7], the half-life is 2.3 h. The efflux ratio in [8] worked out at 7. This molecule also displayed an AUC(0-t) at 24 h in [9] of 27 µM·h. The same molecule showed a Cmax in data set [10] of 2100 nM. In addition, in data set [11], the clearance was determined as 46 mL/min/kg. Besides, the CLint scaled was less than 18 mL/min/kg in data set [12] and 74 mL/min/kg in [14]. For the same molecule, the result in the data set on A-427 [13] was Active. Besides, the Papp B→A in [17] was 25.5 ×10⁻⁶ cm/s. The Papp A→B in [20] amounted to 3.6 ×10⁻⁶ cm/s. The AUC at 672 h in data set [21] stood at 45 µM·h. In data set [22], the log distribution coefficient (logD) stood at 2.4.

Usually inhibition stands for the change of the read-out against control, counted positive when it falls. High values mean strong suppression, low ones little suppression. As a reminder, the IC50 is the midpoint of a concentration-inhibition curve. Usually half-life stands for how long it takes for the measured level to halve. Low readings indicate fast loss, high ones slow loss. The term efflux ratio denotes the permeability from basolateral to apical divided by that in the opposite direction, in the common usage. By AUC(0-t) is commonly meant exposure summed from dosing to a finite time, without extrapolation to infinity. As a reminder, the Cmax is the maximum level reached in the sampled fluid or tissue. For orientation: clearance means the rate of elimination divided by the concentration. Lower therefore signals a low capacity for elimination. For orientation: AUC means the area under the concentration-time curve, a measure of exposure. High values mean more exposure, low ones less exposure. One may read the logD as the decadic logarithm of the distribution of all forms, ionised or not, between an organic phase and buffer at a given pH.
